Results taken from patent US20140336616A1, “DELIVERY DEVICE” (INTERNATIONAL SCIENTIFIC PTY LTD, priority 2012, published 2014).

System: excised human skin
Experiment: Sodium fluorescein dye penetration into excised human skin in Franz cells, with LSCM imaging and image analysis
Type: in vitro ADME
Conditions: 300 μL NaF 1 mg/mL in saline, 15 minutes, 34-35° C.; images from 73 μm deep
Excerpt: Microneedle Treatment: A piece of gauze was folded in half 4 times and then the skin sample placed on top. In-situ skin tension was approximately simulated by stretching the skin over the gauze and pinning in place. A pre-prepared microneedle impact applicator was then used to apply the microneedle to the skin at speed (approximately 3 m·s−1). This applicator consisted of a housing, a spring-loaded plunger and the banks of laser cut microneedles (two 3-needle banks gave a total of 6 microneedles). The banks were mounted into the plunger which was then drawn back, loading the spring, and held in place using a pin. Upon removal of the pin, the plunger accelerated towards the skin, driving the microneedles through the stratum corneum and into the viable epidermis and dermis.
Dye incubation in Franz Cells: A Franz cell was prepared by applying vacuum grease to the sealing surfaces of the receptor and donor. […]
Laser scanning confocal microscopy (LSCM): To prepare the samples for LSCM, a cut was made around the imprint made by the Franz cell. […] The LSCM machine was then switched to the fluorescent mode with 488 nm excitation and 550±88 nm emission band was recorded. […]
Image analysis: The image data names were encoded to blind the image analysis researcher. […] Image J (NIH, Bethesda, Md.) was then used to quantify fluorescence intensity and dye positive areas. […]

O=C1OC2(c3ccc(O)cc3Oc3cc(O)ccc32)c2ccccc21 [NaF, Sodium Fluorescein]
NaF dye penetration / fluorescence pattern (LSCM, visual): no penetration of the dye beyond the stratum corneum
